Assay results as given in patent US20210002231A1 (Centre National de la Recherche Scientifique, priority 2018, published 2021).

Legend:
NPFF2R = NPFF2R (Homo sapiens, UniProt Q9Y5X5); experiment: Radioligand competition binding with [125I]-1-DMe-NPFF; design: expressed in transfected cells; HEK293-Glo20F cells (cAMP)
human NPFF1R = human NPFF1R (Homo sapiens, UniProt Q9GZQ6); experiment: as above; design: expressed in transfected cells; HEK293-Glo20F cells (cAMP)
Sequence of human NPFF1R (Q9GZQ6 whole entry): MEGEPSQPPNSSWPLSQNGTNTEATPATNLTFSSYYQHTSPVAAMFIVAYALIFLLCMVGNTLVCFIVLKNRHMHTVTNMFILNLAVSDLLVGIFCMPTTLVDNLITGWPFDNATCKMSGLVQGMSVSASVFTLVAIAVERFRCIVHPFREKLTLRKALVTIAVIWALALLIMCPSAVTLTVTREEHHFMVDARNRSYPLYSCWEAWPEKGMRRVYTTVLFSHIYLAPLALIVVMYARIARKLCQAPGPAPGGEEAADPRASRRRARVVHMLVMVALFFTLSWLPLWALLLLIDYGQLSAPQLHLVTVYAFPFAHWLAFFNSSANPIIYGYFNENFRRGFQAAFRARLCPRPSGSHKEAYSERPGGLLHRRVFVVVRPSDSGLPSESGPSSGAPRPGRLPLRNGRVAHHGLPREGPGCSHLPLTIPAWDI

Sequence of NPFF2R (Q9Y5X5 whole entry): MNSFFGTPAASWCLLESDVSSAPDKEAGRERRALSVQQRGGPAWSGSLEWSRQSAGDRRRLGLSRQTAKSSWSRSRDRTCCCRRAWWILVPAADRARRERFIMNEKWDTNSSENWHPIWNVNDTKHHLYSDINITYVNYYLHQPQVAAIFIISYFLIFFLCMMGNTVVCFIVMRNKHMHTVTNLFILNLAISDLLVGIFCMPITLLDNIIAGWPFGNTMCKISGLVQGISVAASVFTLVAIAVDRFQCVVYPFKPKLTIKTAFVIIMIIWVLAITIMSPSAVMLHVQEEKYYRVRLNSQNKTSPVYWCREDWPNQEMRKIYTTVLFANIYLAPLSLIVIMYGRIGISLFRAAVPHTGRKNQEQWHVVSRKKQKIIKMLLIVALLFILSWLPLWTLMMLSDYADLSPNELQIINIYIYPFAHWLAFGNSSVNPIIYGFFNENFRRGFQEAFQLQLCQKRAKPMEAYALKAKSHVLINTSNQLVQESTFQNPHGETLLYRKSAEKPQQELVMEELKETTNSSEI

Cc1cc(O)cc(C)c1C[C@H](N)C(=O)N[C@H](CCCNC(=N)N)C(=O)N[C@H]1Cc2ccccc2CN(CCC(N)=O)C1=O [KGOP01, reference compound]
Ki (NPFF2R): 4.5 µM | Ki (human NPFF1R): 4.6 µM
